The values below come from patent publication US20200385396A1, “Compond for treatment or prevention of obesity or diseases related to obesity, and application thereof” (SHANGHAI INSTITUTES FOR BIOLOGICAL SCIENCES, CHINESE …, priority 2017, published 2020).

Structures are written as SMILES.

The test system of one test is Wnt signal. The test can be described thus: TOPFlash reporter gene activity test in HEK293T cells. It counts as cell-based. As to the method:
The HEK293T cells used for the measurement of reporter gene activity were plated at 20 hours before transfection and cultured to about 50% coverage for the transfection. The transfection method was as described above. For HEK293T cells, transfection was performed according to 20 ng TOPFlash, 20 ng GFP and 460 ng lacZ per well, and Wnt3a or Nesfatin-1/NUCB2 protein was added at 18 hours after transfection to stimulate for 6-8 hours, and the cell was lysed with Boehringer Mannheim Luciferase Assay Kit (200 μl/well) for 15 minutes, 50 μl lysate was added in the fluorometer BIO-TEK Synergy2 (Gene Company Limited) to measure the GFP fluorescence intensity in the cell lysate as an internal standard, and then 20 μl luciferase substrate (Roche) was added for the reaction, the luciferase activity was detected in the chemiluminescence channel, and finally the GFP reading was used as an internal standard for homogenization.
We focus on the three small molecules HLY72, HLY103, and HSS49A (FIG. 3a). […] So that the first biochemical experiment design is: whether these three small molecules can compete for the binding of HLY179 to NUCB2 protein.

A further test concerns high-fat diet obese mice. The test can be described thus: Blood biochemical tests and liver slices of obese mice. It counts as in vivo, mouse. The conditions noted are these: 20 mg/kg. The procedure: Mouse liver tissues were taken and fixed in 4% paraformaldehyde at 4° C. overnight. It was washed twice with PBS buffer solution in 30% and 50% ethanol for 30 minutes each, and stored in 70% ethanol at 4° C. (1) Gradient dehydration of ethanol: 80% ethanol for 30 minutes, 95% ethanol for 30 minutes, 100% ethanol for 15 minutes, and fresh 100% ethanol for 15 minutes. (2) Xylene transparent: ½ absolute ethanol plus ½ xylene for 15 minutes, xylene for 10 minutes, and fresh xylene for 10 minutes. (3) Wax immersion, embedding, sectioning: ½ xylene plus ½ paraffin for 30 minutes, paraffin 1 for 90 minutes, paraffin 2 for 120 minutes, paraffin 3 overnight for embedding, conventional section thickness was 4 μm, pasted on clean glass slides that have been processed, the slides were baked at 37° C. overnight, collected in a slide box and sealed at 4° C. (4) Xylene dewaxing, gradient ethanol rehydration: tissue sections were dewaxed three times with xylene, 10 minutes each time, and placed in ½ xylene plus ½ absolute ethanol for 15 minutes. After 5 minutes each of 100%, 90%, 80%, 70%, 50% and 30% ethanol, it was put in pure water for 5 minutes. (5) HE staining, filming: hematoxylin staining at room temperature for 20 minutes, rinsed under running water, color separation with 0.1% hydrochloric acid and ethanol for 1 second, rinsed under running water, after 1 minute each of 30%, 50%, 70%, 80% and 95% ethanol, it was stained with 1% eosin for 1 minute. It was put in absolute ethanol for 1 minute and dehydrated with fresh absolute ethanol twice for 5 minutes each time, it was put in ½ absolute ethanol plus ½ xylene for 15 minutes, and then xylene 1, 2, 3 for 5 minutes each time. Sealed with neutral gum and stored at room temperature in a dry place. The cell platform Olympus BX51 microscope was used for filming.
The effects on the various adverse indicators of obesity after drug administration were detected.

Test [1] has as its system obese mice fed with high-fat diet (DIO). The test can be described thus: Metabolic cage, obese mice fed with high-fat diet (DIO). The conditions noted are these: 20 mg/kg. The test is classed as in vivo, mouse. The procedure:
(§1) Before starting the metabolic cage experiment, the mice were fed in a single cage for 1 week. After a one-week single cage adaptation period, three days before the start of the small molecule compound injection, the mice were injected with 25 μL of DMSO within 2 hours before turning off the lights every afternoon, allowing them to adapt to the injection for 3 days. After 3 days of injection, the acclimated mice were put into the metabolic cage. Starting from the same day, 25 μL of DMSO and HLY72 (20 mg/kg) were injected within 2 hours before turning off the lights for 3 consecutive days.
(§2) Next, the effect of HLY72 on the metabolism of mice is studied. We use two methods: (1) the relevant metabolic indexes of the mice are directly measured using the metabolic cage, and (2) the expression of the relevant key metabolic genes is detected. three metabolic parameters are obtained through the metabolic cage experiment: (1) Energy expenditure (EE), energy output is an important aspect of energy balance, under conditions such as restricted diet and fasting, mice will reduce basic metabolism, reduce energy expenditure; (2) respiratory exchange ratio (RER), based on the ratio calculated by CO2 produced and the use of 02, RER of 1 means that carbohydrates is mainly used as energy, RER of 0.7 means that fat is mainly used as fuel; (3) physical activity (Activity).

Another test has as its system normal-fed mice (Lean). The experiment in a line: Metabolic cage, normal-fed mice (Lean). It counts as in vivo, mouse. The conditions noted are these: for respiratory exchange rate / physical activity: 20 mg/kg. The procedure:
as §1, §2

The next test has as its system normal mice. The experiment in a line: Food intake of mice after single intraperitoneal injection. It counts as in vivo, mouse. The procedure:
Mice were intraperitoneally injected with DMSO or HLY72 (dissolved in DMSO) 25 μL within 2 hours before turning off the lamp. During the intragastric experiment, the high concentration of HLY72 dissolved in DMSO was dissolved in 10% cyclodextrin, and the total volume was 100 μL Volume by gavage, so that the final concentration of DMSO was less than 10%. The diet was weighed at the 3rd hour, the 6th hour, the 12th hour, and the 24th hour respectively after the lights out. The corresponding mouse body weight was also weighed at the same time before the daily administration. The fat content of mice was measured with the magnetic resonance fat content measuring instrument of the animal platform in SIBCB.
The next question we are very concerned about is whether HLY78 has similar functions to NUCB2 protein in mice. Up to now, the most classic function reported for NUCB2 protein is to reduce the food intake of mice at night. Therefore, the experiment was designed: 20 mg/kg of HLY78 was injected intraperitoneally within two hours before turning off the lights at night, and then the food intake of the mice was measured at different time points (0-3 h, 0-6 h, 0-12 h, 0-24 h). […] During the three days of the adaptive injection period before HLY78 injection, both groups of mice were injected with DMSO. On the day of injection of HLY78 and the two days before the injection of DMSO, the body weight of the two groups of mice is also the same (FIG. 2b).
Next, two small molecules HLY72 and HLY103 were selected to perform functional experiments on the food intake in mice.

On to `C=Cc1cccc2c1N(C)Cc1cc3c(cc1-2)OCO3` [HLY72], for which the “activity of Wnt signal activation” value in the test with Wnt signal is reported as “none of them have the activity of Wnt signal activation”. For the same compound, the “alanine transaminase ALT” value in the test on high-fat diet obese mice was “decreased”. In addition, in the test on high-fat diet obese mice, the “aspertate aminotransferase AST” value is “does not change”. Also, the blood glucose result with high-fat diet obese mice is on record as “decreased significantly”. Besides, the cholesterol levels entry in the test with high-fat diet obese mice is given as “decreased significantly”. Further, in the test on high-fat diet obese mice, the triacylglycerol result is “decreased significantly”. Also, in the test on high-fat diet obese mice (HE staining), the “fatty liver caused by high fat (liver slices)” value is on record as “well treated”. For the same compound, the physical activity entry in test [1] (at night) was “significantly reduced”; in test [1] (during the day) it was “no change”; with normal-fed mice (Lean) (daytime), “does not affect”; in the test with normal-fed mice (Lean) (night), “decreased”. For the same compound, the energy expenditure result in test [1] (at night and during the day) is “significantly reduced”; in the test on normal-fed mice (Lean) (20 mg/kg once a day, night (dark) and day (light)) it was “significantly reduces”. For the same compound, in test [1] (at night and during the day), the “respiratory exchange rate compared with the DMSO group” value is recorded as “significantly reduced”. In addition, the respiratory exchange rate result is on record as “significantly reduced” with normal-fed mice (Lean) (at night) and “no change” in the test on normal-fed mice (Lean) (during the day). Moreover, the “food intake of mice” value is “no significant effect” in the test on normal mice (7.5 mg/kg), “significant gradient effect” in the test on normal mice (15 mg/kg) and “significant gradient effect” in the test with normal mice (30 mg/kg).
